In ChEMBL document CHEMBL1201862, “PubChem BioAssay data set” (2004):
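Each compound was tested at five concentrations against cells in 96-well plates for 48 hours. GI50 = concentration required for 50% inhibition of growth.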 Calls of active or inactive are those of the source. Rule as the data show it: active = GI50 up to about 1.1 µM and inactive = higher.

Key:
Experiment in all cases: NCI tumour cell line growth inhibition, 48 h
IGROV-1 = test system: IGROV-1
ACHN = test system: ACHN
SNB-19 = test system: SNB-19
SF-539 = test system: SF-539
HCT-15 = test system: HCT-15
HOP-92 = test system: HOP-92
NCI-H460 = test system: NCI-H460
Malme-3M = test system: Malme-3M
U-251 = test system: U-251
OVCAR-5 = test system: OVCAR-5
RXF 393 = test system: RXF 393
SK-OV-3 = test system: SK-OV-3
UO-31 = test system: UO-31
HCC 2998 = test system: HCC 2998
SNB-75 = test system: SNB-75
CAKI-1 = test system: CAKI-1

Compound	GI50 (IGROV-1)	GI50 (ACHN)	GI50 (SNB-19)	GI50 (SF-539)	GI50 (HCT-15) [µM]	GI50 (HOP-92)	GI50 (NCI-H460)	GI50 (Malme-3M)	GI50 (U-251)	GI50 (OVCAR-5)	GI50 (RXF 393)	GI50 (SK-OV-3)	GI50 (UO-31)	GI50 (HCC 2998)	GI50 (SNB-75)	GI50 (CAKI-1)
COc1cccc(NC(=O)CC(=O)N2N=C(n3ccc4ccccc43)CC2c2ccccc2)c1 (stereo not drawn)	> 100 µM (inactive)	> 100 µM (inactive)	> 100 µM (inactive)	> 100 µM (inactive)	> 100	55.6 µM (inactive)	> 100 µM (inactive)	> 100 µM (inactive)	> 100 µM (inactive)	> 100 µM (inactive)	> 100 µM (inactive)	> 100 µM (inactive)	> 100 µM (inactive)	> 100 µM (inactive)	71.3 µM (inactive)	
CCOc1cc2c(cc1OC)c[n+](C)c1c3cc(OC)c(OC)cc3ccc21	> 66.5 µM (inactive)	> 100 µM (inactive)	> 52.5 µM (inactive)	> 100 µM (inactive)	> 75.2	27 µM (inactive)	> 73.6 µM (inactive)	> 77.6 µM (inactive)	> 33.4 µM (inactive)	> 49.1 µM (inactive)	34 µM (inactive)	> 100 µM (inactive)	> 100 µM (inactive)	> 100 µM (inactive)		> 67.8 µM (inactive)
COc1cc2c(c(OC)c1)C(=O)C(=O)C(CC1(C)OCCCO1)=C2	14.2 µM (inactive)	6.61 µM (inactive)	22.2 µM (inactive)	17.5 µM (inactive)	6.25	1.89 µM (inactive)	13.3 µM (inactive)	8.2 µM (inactive)	15.3 µM (inactive)	22.9 µM (inactive)	4.38 µM (inactive)	16.6 µM (inactive)	12.7 µM (inactive)	16.4 µM (inactive)	19.5 µM (inactive)	5.43 µM (inactive)
CCOC(OCC)c1ccc(/C=C/c2cc(OC)c(OC)c(OC)c2)cc1	32.7 µM (inactive)	37.8 µM (inactive)	29 µM (inactive)	15.8 µM (inactive)	15.9	21.8 µM (inactive)	19.1 µM (inactive)	17.1 µM (inactive)	16.3 µM (inactive)	11.4 µM (inactive)	19.8 µM (inactive)		15.1 µM (inactive)		19.5 µM (inactive)	24.9 µM (inactive)
COc1cccc(N2C(=O)c3c(c4[nH]c5ccccc5c4c4ccc(C(C)(C)C)cc34)C2=O)c1	> 100 µM (inactive)	> 100 µM (inactive)	> 100 µM (inactive)	> 100 µM (inactive)	> 100	> 100 µM (inactive)	> 100 µM (inactive)	> 100 µM (inactive)	> 100 µM (inactive)	> 100 µM (inactive)	> 100 µM (inactive)	> 100 µM (inactive)	> 100 µM (inactive)	> 100 µM (inactive)	> 100 µM (inactive)	> 100 µM (inactive)
C=C(COC(C)=O)CC(/C=C(\C)CC/C=C(\C)CO)OC(C)=O (stereo not drawn)	> 100 µM (inactive)	> 100 µM (inactive)	> 100 µM (inactive)	> 100 µM (inactive)	> 100	54.8 µM (inactive)	> 100 µM (inactive)		> 100 µM (inactive)	> 100 µM (inactive)	> 100 µM (inactive)	> 100 µM (inactive)	> 100 µM (inactive)	> 100 µM (inactive)	59 µM (inactive)	
Cc1cccc(C)c1NC(=O)CCC/C(CC(=O)c1ccc(F)cc1)=N\NC(=O)C(=O)NN	> 100 µM (inactive)	> 100 µM (inactive)	> 100 µM (inactive)	> 100 µM (inactive)	> 100		> 100 µM (inactive)	> 100 µM (inactive)	> 100 µM (inactive)	> 100 µM (inactive)	21.9 µM (inactive)	> 100 µM (inactive)	> 100 µM (inactive)	> 100 µM (inactive)	> 100 µM (inactive)	> 100 µM (inactive)
O=C1/C(=C/c2cccc3ccccc23)Cc2ccccc21	41.4 µM (inactive)	36.5 µM (inactive)	17.9 µM (inactive)	27.2 µM (inactive)	34.9		36.6 µM (inactive)		19.6 µM (inactive)	29.2 µM (inactive)	16.7 µM (inactive)	18.6 µM (inactive)	22.1 µM (inactive)	15.5 µM (inactive)	29.8 µM (inactive)	25.6 µM (inactive)
Cn1cnc([N+](=O)[O-])c1Sc1nccn1-c1cccc2ccccc12	26.7 µM (inactive)	26.4 µM (inactive)	94 µM (inactive)	25.4 µM (inactive)		15.3 µM (inactive)	25.7 µM (inactive)	13.7 µM (inactive)	26.2 µM (inactive)	23.2 µM (inactive)		31.8 µM (inactive)	16.7 µM (inactive)	45.5 µM (inactive)	29.9 µM (inactive)	30.9 µM (inactive)
